# Assay results: patent publication US20220016048A1, “CANNABIDIOL-TYPE CANNABINOID COMPOUND” (GW Research Limited, priority 2018, published 2022)
# Entries after “also recorded” stand apart in the source; their conditions may differ.
# Experiments:
# [1] = system: DNA damage in the liver; experiment: Alkaline Comet assay; type: in vivo, rat
# Method: CBD-C4 was tested for its potential to induce micronuclei (MN) in the polychromatic erythrocytes (PCE) of the bone marrow of treated rats to induce DNA damage in the liver of the same animals.
# CBD-C4 was administered at a dose of 125, 250 and 500 mg/kg/day during this study. Vehicle and a positive control of ethyl methanesulfonate (EMS) at a dose of 150 mg/kg/day were tested alongside the CBD-C4.
# A range finding study was performed on 9 male young adult out-bred Sprague Dawley rats justifying the chosen dose levels of CBD-C4 used during the study.
# Animals were allocated into groups of six with the exception of the positive control which comprised three animals.
# Rats were dosed by oral gavage with test article suspended in sesame oil, vehicle (sesame oil) or positive control.
# Blood samples were taken for bioanalysis and tissue samples were removed from animals at necropsy from the liver and femur.
# Bone marrow sampling, micronucleus slide preparation and comet cell suspensions were undertaken to determine level of toxicity of CBD-C4.
# [2] = system: Salmonella typhimurium (TA98, TA100, TA1535, TA1537 and TA102); experiment: Ames test; type: cell-based; settings: absence and presence of S-9
# Method: The aim of this study was to evaluate the potential mutagenic activity of CBD-C4 by examining its ability to revert five histidine-requiring strains of Salmonella typhimurium in the absence and presence of a rat liver metabolising system (S-9).
# Control treatments were performed with 2-nitrofluorene (2NF) at a final concentration of 5 μg/plate; Sodium azide (NaN3) at a final concentration of 2 μg/plate; 9-aminoacridine (AAC) at a final concentration of 50 μg/plate; Mitomycin C (MMC) at a final concentration of 0.2 μg/plate; Benzo[a]pyrene (B[a]P) at a final concentration of 10 μg/plate; and 2-aminoanthracene (AAN) at a final concentration of 5 and 20 μg/plate.
# Treatments were carried out both in the absence and presence of S-9 by addition of either buffer solution or 10% S-9 mix respectively.
# Five strains of Salmonella typhimurium bacteria (TA98, TA100, TA1535, TA1537 and TA102) were used in this study.
# Bacteria were cultured at 37±1° C. for 10 hours in nutrient broth, containing ampicillin or ampicillin and tetracycline as appropriate, to provide bacterial cultures in the range of approximately 10^8 to 10^9 cells/mL, based on cell count data from testing of each strain batch. […]
# Following incubation, these plates were examined for evidence of toxicity to the background lawn, and where possible revertant colonies were counted. […]
# [3] = system: mouse model of seizure; experiment: maximal electroshock (MES) test in the mouse; type: in vivo; settings: for decrease in the number of mice showing tonic convulsions, as compared with vehicle controls: p<0.001
# Method: Mice were administered MES (50 mA, rectangular current: 0.6 ms pulse width, 0.4 s duration, 50 Hz) via corneal electrodes connected to a constant current shock generator (Ugo Basile: type 7801). The number of tonic convulsions was recorded.
# Twelve mice were studied per group. The test was performed blind.
# The test substance, CBD-C4, was evaluated at 5 doses (3, 10, 30, 100 and 200 mg/kg), administered i.p. 60 minutes before MES, and compared with a vehicle control group (administered under the same experimental conditions).
# Diazepam (2 mg/kg i.p.), administered i.p. 30 minutes before MES, was used as a reference substance and was compared with a vehicle group (administered i.p. 60 minutes before MES).
# Data was analysed by comparing treated groups with the appropriate vehicle control using Fisher's Exact Probability tests.
structure (smiles),measurement,setting,value
"C=C(C)[C@@H]1CCC(C)=C[C@H]1c1c(O)cc(CCCC)cc1O [CBD-C4, (1′R,2′R)-4-butyl-5′-methyl-2′-(prop-1-en-2-yl)-1′,2′,3′,4′-tetrahydro-[1,1′-biphenyl]-2,6-diol]",% hedgehogs in liver,"[1]; 125, 250 and 500 mg/kg/day oral gavage",no dose-related increase
same,group mean tail intensity and tail moment,"[1]; all groups, 125, 250 and 500 mg/kg/day oral gavage",comparable with the group mean vehicle control data
same,DNA damage in the liver (Comet assay),[1]; up to 500 mg/kg/day oral gavage,did not induce DNA damage; also recorded: No genotoxicity was observed
same,increases in revertant numbers vs concurrent vehicle control,"[2]; 5-5000 μg/plate, all test strains",no increases in revertant numbers
same,mutagenic activity,[2]; five strains,No genotoxicity was observed; also recorded: no evidence of any CBD-C4 mutagenic activity; also recorded: does not induce mutation
same,"decrease in the number of mice showing tonic convulsions, as compared with vehicle controls",[3]; 100 mg/kg i.p. 60 minutes before MES,−100%
same,"decrease in the number of mice showing tonic convulsions, as compared with vehicle controls",[3]; 200 mg/kg i.p. 60 minutes before MES,−100%
same,effect on number of mice showing tonic convulsions,"[3]; lower doses 3, 10 and 30 mg/kg i.p. 60 minutes before MES",No effects
